The source made the active and inactive calls. No stated cut-off is given here; in the data, active = inhibition of 80% or more and inactive = less.
Test system: Naegleria gruberi
Test: microbe, parasite or virus in culture
Type: functional
Conditions: NEG-M, CONC 10 uM
Description: Growth inhibiting activity of Naegleria gruberi in vitro

`Cc1ccc2oc(-c3cc(NC(=O)Cc4ccccc4)ccc3Cl)nc2c1` was tested, and the inhibition at 10 µM was 44.5% (not active).
In the case of `CCc1ccc([C@@H]2C[C@H](C(F)(F)F)n3ncc(C(=O)NCc4ccc(OC)cc4)c3N2)cc1`, the inhibition at 10 µM is reported as 29% (not active).
With `Cc1nc(-c2ccccn2)nc(N(C)CCc2ccccc2)c1Cl` the inhibition at 10 µM was 21.1% (not active).
In the case of `CNc1cc(C)nc(C2CN(C(=O)c3n[nH]c4ccccc34)CCO2)c1` (stereo not drawn), the inhibition at 10 µM is reported as 24.2% (not active).
In the case of `c1ccc(-c2[nH]c3ccccc3c2C(c2ccccn2)N2CCCC2)cc1` (stereo not drawn), the inhibition at 10 µM is reported as 32.7% (not active).
With `CCCc1ccc(S(=O)(=O)Nc2ccc(CN3CCN(CC4CC4)CC3)cc2)cc1` the inhibition at 10 µM was 30.3% (not active).
For `CCC(Sc1nc2ccccc2o1)C(=O)Nc1nccs1` (stereo not drawn), the inhibition at 10 µM was 44.3% (not active).
With `O=C(Nc1ccc2c(c1)B(O)OC2)c1ccccc1C(F)(F)F` the inhibition at 10 µM was 89.8% (active).
In the case of `CCCn1nnc(NC(=O)COc2ccc(C3CCCCC3)cc2)n1`, the inhibition at 10 µM is reported as 33% (not active).
For `C[C@H](C(N)=O)N1CCCC[C@@H]1c1ccc(OCc2cccc(F)c2)cc1`, the inhibition at 10 µM was 13.9% (not active).
In the case of `O=C(Nc1nc(-c2ccccn2)cs1)c1cncn1-c1ccccc1`, the inhibition at 10 µM is reported as 45.9% (not active).
For `CC[C@H](CO)NCCN[C@H](CC)CO`, the inhibition at 10 µM was 26.7% (not active).
`FC(F)(F)c1nnc2ccc(Cl)nn12` was tested, and the inhibition at 10 µM was 16.8% (not active).
With `COc1cc(C2=NCCN2)ccc1-n1cc(-c2cccc(C3=NCCN3)c2)nn1` the inhibition at 10 µM was 16.2% (not active).
In the case of `CS(=O)(=O)Cc1nc2ccccc2oc1=O`, the inhibition at 10 µM is reported as 38.8% (not active).
`CCC(C)NC(=O)c1ccc(NC(=O)C2(c3ccccc3)CCCC2)cc1` (stereo not drawn) was tested, and the inhibition at 10 µM was 0.4% (not active).
`O=C(Nc1cnc2ccccc2c1)c1cccc(-n2cnnn2)c1` was tested, and the inhibition at 10 µM was 9.8% (not active).
For `CC(Oc1cccc(Cl)c1)C(=O)Nc1ccc2oc(-c3ccncc3)nc2c1` (stereo not drawn), the inhibition at 10 µM was 35.9% (not active).
`O=C(C(Cc1c[nH]c2ccccc12)NS(=O)(=O)c1ccc(Cl)cc1)N1CCCCC1` (stereo not drawn) was tested, and the inhibition at 10 µM was 23.3% (not active).
In the case of `O=C(Nc1ccc(N2CCNCC2)nc1)c1oc(-c2ccccc2)nc1C(F)(F)F`, the inhibition at 10 µM is reported as 15.4% (not active).
`COc1cc(C2=NCCN2)cc2cc(-c3ccc(C4=NCCN4)cc3)oc12` was tested, and the inhibition at 10 µM was 11.2% (not active).
For `O=C(C1CCCCC1)N1CC(=O)N2CCc3ccccc3C2C1` (stereo not drawn) [PRAZIQUANTEL], the inhibition at 10 µM was 41.5% (not active).
In the case of `O=C1[C@@H](Oc2ccccc2)[C@@H](c2ccc(Cl)cc2)N1CCn1cnc2c(NCc3ccccc3)ncnc21`, the inhibition at 10 µM is reported as 0% (not active).
In the case of `N#Cc1ccc(-c2cnc(N)c(-c3ccc(C(N)=O)cc3)n2)cc1`, the inhibition at 10 µM is reported as 21.8% (not active).
In the case of `CN1CCCC1CCO[C@](C)(c1ccccc1)c1ccc(Cl)cc1` (stereo partly drawn), the inhibition at 10 µM is reported as 64.4% (not active).
`O=C1COCc2ccc(Br)cc2N1Cc1ccc(C(F)(F)F)cc1` was tested, and the inhibition at 10 µM was 26.7% (not active).
For `O=C(OCc1ccccc1)N1CCC(c2cc(-c3ccncc3)c(-c3ccc(F)cc3)[nH]2)CC1`, the inhibition at 10 µM was 42.4% (not active).
`Cc1ccc2nc(Cl)c(CNCc3cccs3)cc2c1` was tested, and the inhibition at 10 µM was 35.5% (not active).
`Cc1c[nH]c(CCNC(=O)c2cc(-c3ccc(Cl)cc3)cs2)n1` was tested, and the inhibition at 10 µM was 38.3% (not active).
For `COc1ccc(CCN2CCC(NCc3cccc(N(C)C)c3)CC2)cc1`, the inhibition at 10 µM was 8.7% (not active).
`CS(=O)(=O)c1cccc(-c2cnc3[nH]cc(-c4ccc(CCC(=O)O)cc4)c3c2)c1` was tested, and the inhibition at 10 µM was 28.7% (not active).
For `CCc1nn(C)c(C(=O)NCc2ccc(Oc3ccc(C)cc3)cc2)c1Cl` [TOLFENPYRAD], the inhibition at 10 µM was 93.3% (active).
`Cc1[nH]c2cc(F)cc(F)c2c(=O)c1-c1ccc(Oc2ccc(OC(F)(F)F)cc2)cc1` was tested, and the inhibition at 10 µM was 11.3% (not active).
With `COc1ccc(-c2nnc3ccc(-c4cccc(C(C)C)c4)cn23)cc1OC` the inhibition at 10 µM was 26.7% (not active).
For `Cc1nn2c(O)c3c(nc2c1-c1ccc(F)cc1)CCCC3`, the inhibition at 10 µM was 30.1% (not active).
For `CC1COC2(CCN(c3nc(=O)c4cc(C(F)(F)F)cc([N+](=O)[O-])c4s3)CC2)O1` (stereo not drawn), the inhibition at 10 µM was 38.4% (not active).
In the case of `Cc1ccc2[nH]c(C3CCCNC3)c(-c3ccncc3)c2c1` (stereo not drawn), the inhibition at 10 µM is reported as 9.5% (not active).
With `Cc1cc(NCC(C)C)c2[nH]nc(-c3ccccc3)c2n1` the inhibition at 10 µM was 25.8% (not active).
In the case of `CC(C)(CN)c1nc(-c2ccc(Cl)c(O)c2)c(-c2ccnc(N)n2)[nH]1`, the inhibition at 10 µM is reported as 6.4% (not active).
For `Clc1ccc(-n2cc(COc3ccnc4ccccc34)nn2)cc1`, the inhibition at 10 µM was 75.2% (not active).
In the case of `CCCn1c(CNc2ccccc2O)nc2ccccc21`, the inhibition at 10 µM is reported as 39.9% (not active).
In the case of `NCC(=O)N1CCn2c(nc(-c3ccccc3)c2Nc2ccc3c(c2)OCO3)C1`, the inhibition at 10 µM is reported as 8.3% (not active).
`Cc1noc(C)c1COc1cccc(C(=O)N=c2[nH]cccc2C)c1` was tested, and the inhibition at 10 µM was 36.7% (not active).
With `CC(C)(C)CN1C(=O)C(c2ccccc2)(c2ccccc2)N=C1N` the inhibition at 10 µM was 19.2% (not active).
In the case of `CC[C@@H]([C@H](C)O)n1ncn(-c2ccc(N3CCN(c4ccc(OC[C@@H]5CO[C@@](Cn6cncn6)(c6ccc(F)cc6F)C5)cc4)CC3)cc2)c1=O` [POSACONAZOLE], the inhibition at 10 µM is reported as 84.8% (active).
`Cc1nnc(NC(=O)c2cn(-c3ccccc3)nc2-c2ccccc2C)o1` was tested, and the inhibition at 10 µM was 34.7% (not active).
In the case of `Cc1nn2c(=O)c3c([nH]c2c1-c1ccc(Cl)cc1)CCCC3`, the inhibition at 10 µM is reported as 30.5% (not active).
In the case of `Cc1ccc(S(=O)(=O)n2cc(-c3ccnc(N)c3)c3cc(Br)cnc32)cc1`, the inhibition at 10 µM is reported as 53.9% (not active).
For `COc1ccc(Oc2ccc([C@@H](C)N(C)c3ncc4c(N)nc(N)nc4n3)cc2)cc1`, the inhibition at 10 µM was 25.6% (not active).
In the case of `CC(C)(C)c1cnc(NC(=O)c2ccccc2O)s1`, the inhibition at 10 µM is reported as 0% (not active).
`O=C1Nc2ccc(Br)cc2C12NCCc1c2[nH]c2ccccc12` (stereo not drawn) was tested, and the inhibition at 10 µM was 33.5% (not active).
For `O=C(C1CCN(c2nnc(-n3cccc3)s2)CC1)N1CCC(Cc2ccccc2)CC1`, the inhibition at 10 µM was 31.1% (not active).
With `O=C(c1ccco1)N(CCCn1ccnc1)c1nc2c(Cl)cccc2s1` the inhibition at 10 µM was 68.6% (not active).
In the case of `CC(C)(C)OC(=O)N1CCN(c2cc(-c3ccc(Oc4ccccc4)cc3)n[nH]2)CC1`, the inhibition at 10 µM is reported as 65.7% (not active).
With `Nc1ncnc2c1ncn2[C@@H]1O[C@H](COS(=O)(=O)NC(=O)c2ccccc2O)[C@@H](O)[C@H]1O` the inhibition at 10 µM was 14.5% (not active).
`N=C(N)Nc1ccc(-c2ccc(-c3ccc(NC(=N)N)cc3Cl)o2)c(Cl)c1` was tested, and the inhibition at 10 µM was 24% (not active).
In the case of `CNc1snc(C)c1C(=O)NCCOc1ccc(OC)cc1`, the inhibition at 10 µM is reported as 40.5% (not active).
With `COc1ccc(N(CCc2cccc(C)n2)C(=O)C2CCCCC2)cc1` the inhibition at 10 µM was 20% (not active).
For `CC(C)/N=c1\cc2n(-c3ccc(Cl)cc3)c3ccccc3nc-2cc1Nc1ccc(Cl)cc1` [CLOFAZIMINE], the inhibition at 10 µM was 67.9% (not active).
With `O=C(NC1CC1)c1ccc(N2CCOc3ccc(Cl)cc32)s1` the inhibition at 10 µM was 27.6% (not active).
`CC(=O)NCC1CN(c2ccc(-c3ccc(CNCc4cn[nH]n4)cc3)c(F)c2)C(=O)O1` (stereo not drawn) was tested, and the inhibition at 10 µM was 26.2% (not active).
`CCN(CC)CCCCCCNc1cc(OC)cc2c(C)ccnc12` [SITAMAQUINE] was tested, and the inhibition at 10 µM was 40.1% (not active).
`Cn1ncc2c(N3CCOCC3)nc(NCCc3c[nH]c4ccccc34)nc21` [TDR79432] was tested, and the inhibition at 10 µM was 45.9% (not active).

— ChEMBL document CHEMBL4513101, “Naegleria gruberi Pathogen Box compounds screening” (2021)
